Counter-ions that a name gives are not always drawn. Like-named read-outs stand apart in the source and are kept apart here.
Assays:
[1] = target: PDE 4 (phosphodiesterase IV); assay: PDE 4 inhibiting effect (3H-cAMP hydrolysis, PDE 4 active fraction from Balb/c mouse liver); assay type: biochemical; conditions: PDE 4 fraction from Balb/c mice liver, 0.064 μM cAMP, 2 hours at 25° C., read-out: PDE4 IC50
Summary of the method: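 Activity was measured as 3H-cAMP hydrolysis, with Sephadex-QAE added after the reaction. The enzyme was a PDE4-active fraction from 12-week male Balb/c mouse liver, taken from the ultracentrifuged soluble fraction by DEAE sepharose chromatography (0.05-1 M sodium acetate gradient, pH 6.5 buffer).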

[2] = target: PDE 7 (phosphodiesterase VII) (Homo sapiens (Human), UniProt Q13946); assay: PDE 7 inhibiting effect (3H-cAMP hydrolysis, PDE 7 active fraction from MOLT-4 cells); assay type: biochemical; conditions: read-out: PDE7 IC50
Summary of the method: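 ³H-cAMP hydrolysis by a PDE7-active fraction was followed, and the reaction was worked up with a Sephadex-QAE suspension (10 mM HEPES-Na, pH 7.0). Enzyme came from MOLT-4 cell soluble extract (pH 7.5 Tris buffer, 100,000×G supernatant), fractionated by HiTrap Q anion exchange with a 0–0.8 M NaCl gradient.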

[3] = PDE 7 fraction from MOLT-4 cells, 0.064 μM cAMP, 10 μM rolipram, 2 hours at 25° C.

PDE 7 (phosphodiesterase VII), sequence (Q13946 whole entry): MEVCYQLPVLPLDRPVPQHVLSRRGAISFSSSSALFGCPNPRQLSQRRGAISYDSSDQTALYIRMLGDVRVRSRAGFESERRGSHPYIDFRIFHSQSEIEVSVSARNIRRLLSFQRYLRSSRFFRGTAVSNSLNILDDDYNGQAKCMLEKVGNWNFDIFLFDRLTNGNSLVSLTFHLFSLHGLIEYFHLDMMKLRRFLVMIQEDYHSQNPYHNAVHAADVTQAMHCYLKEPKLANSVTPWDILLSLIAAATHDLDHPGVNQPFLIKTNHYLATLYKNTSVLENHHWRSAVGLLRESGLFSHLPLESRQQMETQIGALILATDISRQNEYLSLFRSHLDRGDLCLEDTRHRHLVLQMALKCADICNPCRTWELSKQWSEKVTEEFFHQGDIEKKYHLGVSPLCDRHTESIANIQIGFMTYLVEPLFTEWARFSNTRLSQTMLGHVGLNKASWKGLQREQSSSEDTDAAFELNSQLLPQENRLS

SMILES	IC50 [1] [nM]	IC50 [2, 3] [nM]	IC50 [2] [nM]	IC50 ([1]; methanesulfonate) [nM]	IC50 ([2]; PDE 7 fraction from MOLT-4 cells, 0.064 μM cAMP, 10 μM rolipram, 2 hours at 25° C., methanesulfonate) [nM]
Cc1nn(C2CCCCC2)c2sc(C(=O)NC3CCN(C4CCOCC4)CC3)cc12 [Example 135, 1-Cyclohexyl-3-methyl-N-(1-tetrahydro-2H-pyran-4-yl-4-piperidinyl)-1H-thieno[2,3-c]pyrazole-5-carboxamide]	7400	53	–	–	–
Cc1nn(C2CCCCC2)c2sc(C(=O)Nc3ccc(N4CCN(C)CC4)nc3)cc12 [Example 109, 1-Cyclohexyl-3-methyl-N-[6-(4-methyl-1-piperazinyl)-3-pyridinyl]-1H-thieno[2,3-c]pyrazole-5-carboxamide di-HCl salt]	1000	–	15	–	–
Cc1nn(C2CCCCC2)c2sc(C(=O)N[C@H]3CC[C@H](O)CC3)cc12 [Example 74, 1-Cyclohexyl-N-(trans-hydroxycyclohexyl)-3-methyl-1H-thieno[2,3-c]pyrazole-5-carboxamide]	7000	50	–	–	–
Cc1nn(C2CCCCCC2)c2sc(C(=O)Nc3ccc(N4CCN(C)CC4)cc3)cc12 [Example 112]	1200	8	–	–	–
Cc1nn(C2CCCCC2)c2sc(C(=O)Nc3cccc(S(=O)(=O)N4CCC(O)CC4)c3)cc12 [Example 264, 1-Cyclohexyl-N-{3-[(4-hydroxy-1-piperidinyl)sulfonyl]phenyl}-3-methyl-1H-thieno[2,3-c]pyrazole-5-carboxamide]	6300	81	–	–	–
Cc1nn(C2CCCCC2)c2sc(C(=O)Nc3ccc(N4CC[C@@H](O)C4)c(F)c3)cc12 [Example 263, 1-Cyclohexyl-N-{3-fluoro-4-[(3R)-3-hydroxypyrrolidinyl]phenyl}-3-methyl-1H-thieno[2,3-c]pyrazole-5-carboxamide]	3500	54	–	–	–
Cc1nn(C2CCCCC2)c2sc(C(=O)Nc3ccc4c(c3)CCN4)cc12 [Example 14, 1-Cyclohexyl-N-(2,3-dihydro-1H-indol-5-yl)-3-methyl-1H-thieno[2,3-c]pyrazole-5-carboxamide HCl salt]	3700	88	–	–	–
COc1cc(NC(=O)c2cc3c(C)nn(C4CCCCC4)c3s2)ccc1NC(C)=O [Example 10, N-[4-(Acetylamino)-3-methoxyphenyl]-1-cyclohexyl-3-methyl-1H-thieno[2,3-c]pyrazole-5-carboxamide]	1800	27	–	–	–
COc1cc(NC(=O)c2cc3c(C)nn(C4CCCCC4)c3s2)ccc1C(=O)NCCO [Example 150, 1-Cyclohexyl-N-(4-{[(2-hydroxyethyl)amino]carbonyl}-3-methoxyphenyl)-3-methyl-1H-thieno[2,3-c]pyrazole-5-carboxamide]	700	45	–	–	–
Cc1nn(C2CCCCC2)c2sc(C(=O)N[C@H]3CC[C@H](N4CCOC4=O)CC3)cc12 [Example 270, 1-Cyclohexyl-3-methyl-N-[trans-4-(2-oxo-1,3-oxazolidin-3-yl)-cyclohexyl]-1H-thieno[2,3-c]pyrazole-5-carboxamide]	1800	15	–	–	–
Cc1nn(C2CCCCC2)c2sc(C(=O)Nc3ccc(N(C)CCO)c(F)c3)cc12 [Example 125, 1-Cyclohexyl-N-{3-fluoro-4-[(2-hydroxyethyl)(methyl)amino]phenyl}-3-methyl-1H-thieno[2,3-c]pyrazole-5-carboxamide HCl salt]	4000	75	–	–	–
Cc1nn(C2CCCCC2)c2sc(C(=O)Nc3ccc(CCN4CCOCC4)cc3)cc12 [Example 201, 1-Cyclohexyl-3-methyl-N-{4-[2-(4-morpholinyl)ethyl]phenyl}-1H-thieno[2,3-c]pyrazole-5-carboxamide]	2200	18	–	–	–
Cc1nn(C2CCCCC2)c2sc(C(=O)Nc3cccc(S(=O)(=O)N4CCN(C)CC4)c3)cc12 [Example 110, 1-Cyclohexyl-3-methyl-N-{3-[(4-methyl-piperazinyl)sulfonyl]-phenyl}-1H-thieno[2,3-c]pyrazole-5-carboxamide HCl salt]	5500	75	–	–	–
CCN1C(=O)CN(CCNC(=O)c2cc3c(C)nn(C4CCCCC4)c3s2)C1=O [Example 316, 1-Cyclohexyl-N-[2-(3-ethyl-2,4-dioxo-1-imidazolidinyl)ethyl]-3-methyl-1H-thieno[2,3-c]pyrazole-5-carboxamide]	15000	97	–	–	–
CNC(=O)c1ccc(NC(=O)c2cc3c(C)nn(C4CCCCC4)c3s2)cc1OC [Example 152, 1-Cyclohexyl-N-{3-methoxy-4-[(methylamino)carbonyl]phenyl}-3-methyl-1H-thieno[2,3-c]pyrazole-5-carboxamide]	3000	85	–	–	–
Cc1nn(C2CCCCC2)c2sc(C(=O)Nc3ccc(N4CCCN(C)CC4)c(F)c3)cc12 [Example 191, 1-Cyclohexyl-N-[3-fluoro-4-(4-methyl-1,4-diazepam-1-yl)phenyl]-3-methyl-1H-thieno[2,3-c]pyrazole-5-carboxamide hemifumarate]	980	–	8.9	–	–

SMILES	IC50 [1] [nM]	IC50 [2, 3] [nM]	IC50 [2] [nM]	IC50 ([1]; methanesulfonate) [nM]	IC50 ([2]; PDE 7 fraction from MOLT-4 cells, 0.064 μM cAMP, 10 μM rolipram, 2 hours at 25° C., methanesulfonate) [nM]
Cc1nn(C2CCCCC2)c2sc(C(=O)Nc3ccc(C(=O)N[C@H]4CC[C@H](O)CC4)nc3)cc12 [Example 382, 1-Cyclohexyl-N-(6-{[(trans-4-hydroxycyclohexyl)amino]carbonyl}-3-pyridinyl)-3-methyl-1H-thieno[2,3-c]pyrazole-5-carboxamide]	620	25	–	–	–
Cc1nn(C2CCCCC2)c2sc(C(=O)N[C@H]3CC[C@H](N4CCN(C)C4=O)CC3)cc12 [Example 280]	1900	17	–	–	–
Cc1cc(NC(=O)c2cc3c(C)nn(C4CCCCC4)c3s2)ccc1N1CCC(O)CC1 [Example 372]	4000	11	–	–	–
CC(=O)Nc1ccc(NC(=O)c2cc3c(C)nn(C4CCCCC4)c3s2)cc1 [Example 100, N-[4-(Acetylamino)phenyl]-1-cyclohexyl-3-methyl-1H-thieno[2,3-c]pyrazole-5-carboxamide]	> 30000	37	–	–	–
CC(=O)n1ccc2cc(NC(=O)c3cc4c(C)nn(C5CCCCC5)c4s3)ccc21 [Example 60, N-(1-Acetyl-1H-indol-5-yl)-1-cyclohexyl-3-methyl-1H-thieno[2,3-c]pyrazole-5-carboxamide]	6500	65	–	–	–
CC(=O)N(C)C1CCN([C@H]2CC[C@H](NC(=O)c3cc4c(C)nn(C5CCCCC5)c4s3)CC2)CC1 [Example 180, N-(trans-4-{4-[Acetyl(methyl)amino]-1-piperidinyl}cyclohexyl)-1-cyclohexyl-3-methyl-1H-thieno[2,3-c]pyrazole-5-carboxamide]	1400	10	–	–	–
Cc1nn(C2CCOCC2)c2sc(C(=O)Nc3ccc(N4CCNC(=O)C4)cc3)cc12 [Example 342, 3-Methyl-N-[4(3-oxo-1-piperazinyl)phenyl]-1-tetrahydro-2H-pyran-4-yl-1H-thieno[2,3-c]pyrazole-5-carboxamide]	4600	28	–	–	–
Cc1nn(C2CCCCC2)c2sc(C(=O)Nc3ccc(N4CCN(C)CC4)cc3)cc12 [Example 107, 1-Cyclohexyl-3-methyl-N-[4-(4-methyl-1-piperazinyl)phenyl]-1H-thieno[2,3-c]pyrazole-5-carboxamide methanesulfonate]	–	–	–	2000	17
Cc1nn(C2CCCCC2)c2sc(C(=O)Nc3ccc(S(=O)(=O)N4CCN(C)CC4)cc3)cc12 [Example 36, 1-Cyclohexyl-3-methy-N-{4-[(4-methyl-1-piperazinyl)sulfonyl]-phenyl}-1H-thieno[2,3-c]pyrazole-5-carboxamide]	25000	40	–	–	–
COCC(=O)Nc1ccc(NC(=O)c2cc3c(C)nn(C4CCCCC4)c3s2)cc1 [Example 101, 1-Cyclohexyl-N-{4-[(methoxyacetyl)amino]phenyl}-3-methyl-1H-thieno[2,3-c]pyrazole-5-carboxamide]	1300	30	–	–	–
Cc1nn(C2CCCCC2)c2sc(C(=O)N[C@H]3CC[C@H](N4CCC(N)CC4)CC3)cc12 [Example 184, N-[trans-4-(4-Amino-1-piperidinyl)cyclohexyl]-1-cyclohexyl-3-methyl-1H-thieno[2,3-c]pyrazole-5-carboxamide]	1100	6.8	–	–	–
Cc1nn(C2CCCCC2)c2sc(C(=O)Nc3ccc(N4CCNCC4)cc3)cc12 [Example 72, 1-Cyclohexyl-3-methyl-N-[4-(1-piperazinyl)phenyl]-1H-thieno[2,3-c]pyrazole-5-carboxamide HCl salt]	1200	10	–	–	–
Cc1nn(C2CCCCC2)c2sc(C(=O)NCCN3CC(=O)N(C)C3=O)cc12 [Example 317, 1-Cyclohexyl-3-methyl-N-[2-(3-methyl-2,4-dioxo-1-imidazolidinyl)-ethyl]-1H-thieno[2,3-c]pyrazole-5-carboxamide]	12000	67	–	–	–
CNC(=O)Cc1ccc(NC(=O)c2cc3c(C)nn(C4CCCCC4)c3s2)cc1 [Example 70]	4700	25	–	–	–
Cc1nn(C2CCOCC2)c2sc(C(=O)N[C@H]3CC[C@H](N4CCC(C(=O)N(C)C)CC4)CC3)cc12 [Example 428, N-(trans-4-{4-[(Dimethylamino)carbonyl]-1-piperidinyl}cyclohexyl)-3-methyl-1-tetrahydro-2H-pyran-4-yl-1H-thieno[2,3-c]pyrazole-5-carboxamide]	9700	50	–	–	–

Source: patent publication US8901315B2, “Thienopyrazole derivative having PDE7 inhibitory activity” (Daiichi Sankyo Company, Limited, priority 2004, dated 2014)
